Results on 13 molecules are retold here after BindingDB's records for doi:10.1021/acsmedchemlett.1c00391 (Glaxosmithkline, 2021).

Experiment [1] in a line: Inhibition of HCV genotype 1a NS5A infected in HuH-7-Luc/Neo-ET cells assessed as reduction in viral replication measured by Luciferase reporter gene assay. Background: A reporter such as luciferase makes a cellular process visible.
The nature of experiment [2]: Inhibition of HCV genotype 1b NS5A infected in HuH-7-Luc/Neo-ET cells assessed as reduction in viral replication measured by Luciferase reporter gene assay.

`COC(=O)N[C@H]1CCC[C@H]2CC[C@@H](c3ncc(-c4ccc(-c5ccc(-c6cnc([C@@H]7CCCN7C(=O)[C@@H](NC(=O)OC)C(C)C)[nH]6)cc5)cc4)[nH]3)N2C1=O`: the EC50 in experiment [1] is 17000 pM; in experiment [2] it was 109 pM.
The corresponding values for `COC(=O)N[C@H](C(=O)N1CCC[C@H]1c1ncc(-c2ccc(-c3ccc(-c4cnc([C@@H]5CC[C@@H]6CCC[C@@H](NC(=O)OC)C(=O)N65)[nH]4)cc3)cc2)[nH]1)C(C)C` are 12000 pM and 133 pM.
The corresponding values for `COC(=O)N[C@H](C(=O)N1CCC[C@H]1c1ncc(-c2ccc(-c3ccc(-c4cnc([C@@H]5CC[C@H]6CCC[C@@H](NC(=O)OC)C(=O)N65)[nH]4)cc3)cc2)[nH]1)C(C)C` are 673 pM and 59 pM.
With `COC(=O)N[C@H]1CCC[C@@H]2CC[C@@H](c3ncc(-c4ccc(-c5ccc(-c6cnc([C@@H]7CCCN7C(=O)[C@@H](NC(=O)OC)C(C)C)[nH]6)cc5)cc4)[nH]3)N2C1=O`, the EC50 in experiment [1] came out at 471 pM; in experiment [2], 37 pM.
Consider `COC(=O)N[C@H]1CCC[C@H]2CC[C@@H](c3ncc(-c4ccc(-c5ccc(-c6cnc([C@@H]7CC8(CN7C(=O)[C@@H](NC(=O)OC)C(C)C)OCCO8)[nH]6)cc5)cc4)[nH]3)N2C1=O`, for which the results for the concentration for a half-maximal effect (EC50) in experiment [1] and in experiment [2] were 8600 pM and 46 pM, respectively.
In the case of `COC(=O)N[C@H](C(=O)N1CC2(C[C@H]1c1ncc(-c3ccc(-c4ccc(-c5cnc([C@@H]6CC[C@@H]7CCC[C@@H](NC(=O)OC)C(=O)N76)[nH]5)cc4)cc3)[nH]1)OCCO2)C(C)C`, the EC50 in experiment [1] was 15000 pM; in experiment [2] it was 80 pM.
As to `COC(=O)N[C@H](C(=O)N1CC2(C[C@H]1c1ncc(-c3ccc(-c4ccc(-c5cnc([C@@H]6CC[C@H]7CCC[C@@H](NC(=O)OC)C(=O)N76)[nH]5)cc4)cc3)[nH]1)OCCO2)C(C)C`, the EC50 in experiment [1] is 707 pM; in experiment [2], 47 pM.
`COC(=O)N[C@H]1CCC[C@@H]2CC[C@@H](c3ncc(-c4ccc(-c5ccc(-c6cnc([C@@H]7CC8(CN7C(=O)[C@@H](NC(=O)OC)C(C)C)OCCO8)[nH]6)cc5)cc4)[nH]3)N2C1=O`: the concentration giving a half-maximal response (EC50) turned out to be 1500 pM in experiment [1] and 64 pM in experiment [2].
In the same order, the values of `COC(=O)N[C@H](C(=O)N1CC2(C[C@H]1c1ncc(-c3ccc(-c4ccc(-c5cnc([C@@H]6CC[C@@H]7CCC[C@H](N(C)C)C(=O)N76)[nH]5)cc4)cc3)[nH]1)OCCO2)C(C)C` are 32000 pM and 209 pM.
The corresponding values for `COC(=O)N[C@H](C(=O)N1CC2(C[C@H]1c1ncc(-c3ccc(-c4ccc(-c5cnc([C@@H]6CC[C@@H]7CCC[C@@H](N(C)C)C(=O)N76)[nH]5)cc4)cc3)[nH]1)OCCO2)C(C)C` are 119000 pM and 217 pM.
In the same order, the values of `COC(=O)N[C@H](C(=O)N1CC2(C[C@H]1c1ncc(-c3ccc(-c4ccc(-c5cnc([C@@H]6CC[C@H]7CCC[C@@H](N(C)C)C(=O)N76)[nH]5)cc4)cc3)[nH]1)OCCO2)C(C)C` are 11000 pM and 298 pM.
Take `COC(=O)N[C@H](C(=O)N1CC2(C[C@H]1c1ncc(-c3ccc(-c4ccc(-c5cnc([C@@H]6CC[C@H]7CCC[C@H](N(C)C)C(=O)N76)[nH]5)cc4)cc3)[nH]1)OCCO2)C(C)C`: the 50% effective concentration (EC50) in experiment [1] is 7700 pM; in experiment [2], 84 pM.
The corresponding values for `COC(=O)N[C@H](C(=O)N1CCC[C@H]1c1nc(-c2ccc(-c3ccc(-c4c[nH]c([C@@H]5CCCN5C(=O)[C@@H](NC(=O)OC)C(C)C)n4)cc3)cc2)c[nH]1)C(C)C` [BMS-790052] are 79 pM and 32 pM.

Usually EC50 stands for the concentration needed to bring the measured effect to its halfway point.
